# In ChEMBL document CHEMBL1201862, “PubChem BioAssay data set” (2004):
#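 Tested at 5 concentrations; 48 h exposure; 96-well plates; endpoints linearly interpolated, else capped at highest concentration. The concentration for 50% growth inhibition is given as GI50.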 Active and inactive are the calls of the source. Cut-off read from the data, not from the text of the source: active = GI50 up to about 1.1 µM and inactive = higher.
# What was measured:
# Test in all cases: growth of human tumour cells (NCI), 48 h
# [1] = test system: SW-620
# [2] = test system: TK-10
# [3] = test system: MOLT-4
# [4] = test system: DU-145
# [5] = test system: OVCAR-4
# [6] = test system: HT-29
# [7] = test system: UACC-62
# [8] = test system: T47D
# [9] = test system: SF-295
# [10] = test system: Malme-3M
# [11] = test system: IGROV-1
# [12] = test system: HOP-62
# [13] = test system: HCT-15
# [14] = test system: SF-268
# [15] = test system: CCRF-CEM
# [16] = test system: HCT-116
# [17] = test system: 786-0
# [18] = test system: SR
# [19] = test system: SNB-19
# [20] = test system: HOP-92
# [21] = test system: OVCAR-8
# [22] = test system: COLO 205
# [23] = test system: EKVX
# [24] = test system: HL-60
# [25] = test system: U-251
# [26] = test system: KM12
# [27] = test system: A549
# [28] = test system: SN12C
# [29] = test system: UACC-257
# [30] = test system: OVCAR-5
# [31] = test system: MCF7
# [32] = test system: NCI/ADR-RES
# [33] = test system: Hs-578T
# [34] = test system: K562
# [35] = test system: M14
# [36] = test system: MDA-MB-435
# [37] = test system: NCI-H460
# [38] = test system: SF-539
# [39] = test system: ACHN
# [40] = test system: SK-MEL-28
# [41] = test system: RXF 393
# [42] = test system: HCC 2998
# [43] = test system: NCI-H23
# [44] = test system: MDA-MB-231
# [45] = test system: SK-MEL-5
# [46] = test system: NCI-H226
# [47] = test system: UO-31
# [48] = test system: SK-OV-3
# [49] = test system: RPMI-8226
# [50] = test system: SNB-75
# [51] = test system: OVCAR-3
# [52] = test system: PC-3
# [53] = test system: SK-MEL-2
smiles,measurement,setting,value
N#CCN1CCCCCc2ccccc21,GI50,[1],> 100 µM (inactive)
same,GI50,[2],> 100 µM (inactive)
same,GI50,[3],> 100 µM (inactive)
same,GI50,[4],> 100 µM (inactive)
same,GI50,[5],> 100 µM (inactive)
same,GI50,[6],> 100 µM (inactive)
same,GI50,[7],> 100 µM (inactive)
same,GI50,[8],> 100 µM (inactive)
same,GI50,[9],53.5 µM (inactive)
same,GI50,[10],> 100 µM (inactive)
same,GI50,[11],> 100 µM (inactive)
same,GI50,[12],> 100 µM (inactive)
same,GI50,[13],> 100 µM
same,GI50,[14],> 100 µM (inactive)
same,GI50,[15],> 100 µM (inactive)
same,GI50,[16],> 100 µM (inactive)
same,GI50,[17],> 100 µM (inactive)
same,GI50,[18],> 100 µM (inactive)
same,GI50,[19],> 100 µM (inactive)
same,GI50,[20],> 100 µM (inactive)
same,GI50,[21],> 100 µM (inactive)
same,GI50,[22],> 100 µM (inactive)
same,GI50,[23],> 100 µM (inactive)
same,GI50,[24],> 100 µM (inactive)
same,GI50,[25],> 100 µM (inactive)
same,GI50,[26],> 100 µM (inactive)
same,GI50,[27],> 100 µM (inactive)
same,GI50,[28],> 100 µM (inactive)
same,GI50,[29],> 100 µM (inactive)
same,GI50,[30],> 100 µM (inactive)
same,GI50,[31],> 100 µM (inactive)
same,GI50,[32],> 100 µM (inactive)
same,GI50,[33],> 100 µM (inactive)
same,GI50,[34],> 100 µM (inactive)
same,GI50,[35],> 100 µM (inactive)
same,GI50,[36],> 100 µM (inactive)
same,GI50,[37],> 100 µM (inactive)
same,GI50,[38],> 100 µM (inactive)
same,GI50,[39],> 100 µM (inactive)
same,GI50,[40],> 100 µM (inactive)
same,GI50,[41],> 100 µM (inactive)
same,GI50,[42],> 100 µM (inactive)
same,GI50,[43],> 100 µM (inactive)
same,GI50,[44],> 100 µM (inactive)
same,GI50,[45],> 100 µM (inactive)
same,GI50,[46],> 100 µM (inactive)
same,GI50,[47],> 100 µM (inactive)
same,GI50,[48],> 100 µM (inactive)
same,GI50,[49],> 100 µM (inactive)
same,GI50,[50],> 100 µM (inactive)
CCC(CCCC[C@@H]1CC[C@H]2CC(=O)C[C@@H]12)OC (stereo not given in full),GI50,[3],> 100 µM (inactive)
same,GI50,[4],> 100 µM (inactive)
same,GI50,[7],> 100 µM (inactive)
same,GI50,[8],> 100 µM (inactive)
same,GI50,[11],> 100 µM (inactive)
same,GI50,[15],> 100 µM (inactive)
same,GI50,[16],> 100 µM (inactive)
same,GI50,[17],> 100 µM (inactive)
same,GI50,[19],> 100 µM (inactive)
same,GI50,[20],> 100 µM (inactive)
same,GI50,[21],> 100 µM (inactive)
same,GI50,[22],> 100 µM (inactive)
same,GI50,[23],> 100 µM (inactive)
same,GI50,[24],49.5 µM (inactive)
same,GI50,[25],> 100 µM (inactive)
same,GI50,[26],> 100 µM (inactive)
same,GI50,[29],56.6 µM (inactive)
same,GI50,[31],> 100 µM (inactive)
same,GI50,[51],> 100 µM (inactive)
same,GI50,[32],76.6 µM (inactive)
same,GI50,[34],36.7 µM (inactive)
same,GI50,[35],> 100 µM (inactive)
same,GI50,[52],> 100 µM (inactive)
same,GI50,[37],> 100 µM (inactive)
same,GI50,[41],> 100 µM (inactive)
same,GI50,[53],> 100 µM (inactive)
same,GI50,[43],91.6 µM (inactive)
same,GI50,[44],> 100 µM (inactive)
same,GI50,[45],73.5 µM (inactive)
same,GI50,[48],> 100 µM (inactive)
